# Measured values reported in patent US10919941B2, “Functional lipid constructs” (KODE BIOTECH LIMITED, priority 2007, dated 2021).
# No end group written: not given here.
# Tests used:
# antibody negative serums = experiment: False positive reactions of modified RBCs with antibody negative serums/plasma; format: cell-based, human; set-up: key to Reaction score BioVue AHG, PAC samples 1-46, 49, 50, 52, 53 / Reaction score BioVue AHG, PAC sample 47 / Reaction score BioVue AHG, PAC sample 48 / Reaction score BioVue AHG, PAC sample 51 / agglutination score, T series serum 2 / agglutination score, T series serum 42 / agglutination score, T series serum 63 / agglutination score, T series serum 62 / agglutination score, T series serum 7 / agglutination score, T series serum 20 / agglutination score, T series serum 48 / agglutination score, T series serum 22 / agglutination score, T series serum 39 / agglutination score, T series serum 23 / agglutination score, T series serum 30 / agglutination score, T series serum 4 / agglutination score, T series serum 31 / agglutination score, T series serum 44 / agglutination score, T series serum 61 / agglutination score, T series serum 18 / agglutination score, T series serum 21 / agglutination score, T series serum 28 / agglutination score, T series serum 55 / agglutination score, false positive serum T18 / agglutination score, false positive serum T21 / agglutination score, false positive serum T28 / agglutination score, false positive serum T55 / agglutination score, false positive serum T78 / agglutination score, false positive serum T92: 0 or ‘−’ no agglutination; 0 or ‘−’ no agglutination; 1+ or 3=very weak agglutination; 1+ or 3=very weak agglutination; 2+ or 5=weak agglutination; 2+ or 5=weak agglutination; 3+ or 8=moderate strong agglutination; 3+ or 8=moderate strong agglutination; 4+ or 10/12=strong agglutination; 4+ or 10/12=strong agglutination; 4+ or 10/12=strong agglutination
# [1] = tested on: Miltenberger Antibody Positive Panel; experiment: Reactivity of modified RBCs against the Miltenberger Antibody Positive Panel; format: cell-based, human; set-up: key to score vs panel 15 TAP2 / score vs panel 4 T7202 / score vs panel 8 T5896 / score vs panel 2 T217 / score vs panel 3 T165 / score vs panel 14 TAP1 / score vs panel 10 Mia / score vs panel 11 Mur / score vs panel 12 Gam / score vs panel 6 T6025 / score vs panel 7 T8445 / score vs panel 9 MIII / score vs panel 13 BoxH / reactivity with Panel Serum #7 (T8445) / agglutination score, Panel Serum #7 (T8445): 0 or ‘−’ no agglutination; 0 or ‘−’ no agglutination; 1+ or 3=very weak agglutination; 1+ or 3=very weak agglutination; 2+ or 5=weak agglutination; 2+ or 5=weak agglutination; 3+ or 8=moderate strong agglutination; 3+ or 8=moderate strong agglutination; 4+ or 10/12=strong agglutination; 4+ or 10/12=strong agglutination; 4+ or 10/12=strong agglutination
# [2] = Australia, Melb Path, 45 tested, construct 50 μg/ml
# [3] = Australia, RNSH, 500 tested, construct 50 μg/ml
# [4] = Malaysia, UMMC, 749 tested, construct 50 μg/ml
# [5] = Philippines, Metrop Hosp, 60 tested, construct 50 μg/ml
# [6] = blood donor plasma, construct 50 μg/ml (2 hours, 37° C.)
substance,measurement,setting,value
"M22: DOPE peptide-lipid construct: MUTK peptide SQTNDKHKRD, leader c, spacer CMG(2) (SQTNDKHKRDC; also: DOPE peptide-lipid construct via leader Cys, spacer CMG(2))","% Positive, BioVue","antibody negative serums; Australia, CSL, 100 tested, construct 50 μg/ml",3.0%
same,"Number Positive, BioVue","antibody negative serums; Australia, CSL, 100 tested, construct 50 μg/ml, 3 h RT then 18 h 4° C.",3
same,"% Positive, BioVue",antibody negative serums; [2],4.5%
same,"Number Positive, BioVue",antibody negative serums; [2],2
same,"% Positive, BioVue",antibody negative serums; [3],0.4%
same,"% Positive, DiaMed",antibody negative serums; [3],0.4%
same,"Number Positive, BioVue",antibody negative serums; [3],2
same,"Number Positive, DiaMed",antibody negative serums; [3],2
same,"% Positive, BioVue",antibody negative serums; [4],2.5%
same,"Number Positive, BioVue",antibody negative serums; [4],19
same,"% Positive, Tube",antibody negative serums; [5],0%
same,"Number Positive, Tube",antibody negative serums; [5],0
same,"Reaction score BioVue AHG, PAC sample 47",antibody negative serums; [6],0
same,"Reaction score BioVue AHG, PAC sample 48",antibody negative serums; [6],0
same,"Reaction score BioVue AHG, PAC sample 51",antibody negative serums; [6],0
same,"Reaction score BioVue AHG, PAC samples 1-46, 49, 50, 52, 53",antibody negative serums; [6],0
same,% False Positives,"antibody negative serums; panel of blood donor plasma samples (PAC), BioVue AHG, construct 50 μg/ml",0%
same,sensitivity and specificity towards a human polyclonal antibody panel compared with sequence 1,"[1]; MUT peptides, prior art sequence 1",superior sensitivity and specificity
same,score vs panel 2 T217,"[1]; Table 8, construct 200 μg/ml",0
same,score vs panel 3 T165,"[1]; Table 8, construct 200 μg/ml",0
same,score vs panel 4 T7202,"[1]; Table 8, construct 200 μg/ml",0
same,score vs panel 6 T6025,"[1]; Table 8, construct 200 μg/ml",10
same,score vs panel 7 T8445,"[1]; Table 8, construct 200 μg/ml",0
same,score vs panel 8 T5896,"[1]; Table 8, construct 200 μg/ml",0
same,score vs panel 9 MIII,"[1]; Table 8, construct 200 μg/ml",0
same,score vs panel 10 Mia,"[1]; Table 8, construct 200 μg/ml",0
same,score vs panel 11 Mur,"[1]; Table 8, construct 200 μg/ml",0
same,score vs panel 12 Gam,"[1]; Table 8, construct 200 μg/ml",3
same,score vs panel 15 TAP2,"[1]; Table 8, construct 200 μg/ml",0
